In ChEMBL document CHEMBL1201862, “PubChem BioAssay data set” (2004):
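Tested at 5 concentrations; 48 h exposure; 96-well plates; endpoints linearly interpolated, else capped at highest concentration. At the GI50, growth is halved.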 Calls of active or inactive are those of the source. Rule as the data show it: active = GI50 up to about 1.1 µM and inactive = higher. Where a SMILES comes first, the peptide text is derived from it. Residues, ends and D or L forms follow the SMILES beside them. The star is where a group is joined. *: point of attachment. Ethyl(2-NMe3+) = C[N+](C)(C)CC*; Cbz = O=C(OCc1ccccc1)*; Boc = CC(C)(C)OC(=O)*; tBu = CC(C)(C)*

Columns and labels:
Test in all cases: NCI-60 cell line screen, 48 h
[1] = test system: HL-60
[2] = test system: Malme-3M
[3] = test system: HCT-116
[4] = test system: SNB-75
[5] = test system: MDA-MB-435
[6] = test system: NCI-H23
[7] = test system: HOP-92
[8] = test system: SK-MEL-5
[9] = test system: KM12
[10] = test system: BT-549
[11] = test system: SK-MEL-28
[12] = test system: IGROV-1
[13] = test system: ACHN
[14] = test system: MOLT-4
[15] = test system: SF-295
[16] = test system: COLO 205
[17] = test system: OVCAR-3
[18] = test system: HT-29
[19] = test system: M14
[20] = test system: SR

Row | Structure (SMILES) | GI50 [1] | GI50 [2] | GI50 [3] | GI50 [4] | GI50 [5] | GI50 [6] | GI50 [7] | GI50 [8] | GI50 [9] | GI50 [10] | GI50 [11] | GI50 [12] | GI50 [13] | GI50 [14] | GI50 [15] | GI50 [16] | GI50 [17] | GI50 [18] | GI50 [19] | GI50 [20]
1 | COc1ccc(CC2c3cc(OC)c(OC)cc3CC[N+]2(C)C)cc1OC (configuration not stated) | > 100 µM (inactive) | > 100 µM (inactive) | > 100 µM (inactive) | > 100 µM (inactive) | > 100 µM (inactive) | > 100 µM (inactive) | > 100 µM (inactive) | > 100 µM (inactive) | > 100 µM (inactive) | > 100 µM (inactive) | > 100 µM (inactive) | > 100 µM (inactive) | > 100 µM (inactive) | > 100 µM (inactive) | > 100 µM (inactive) | > 100 µM (inactive) | > 100 µM (inactive) | > 100 µM (inactive) |  | 
2 | N#CSc1ccc(S(N)(=O)=O)cc1 | 14.3 µM (inactive) | 83.6 µM (inactive) | 44.5 µM (inactive) | > 100 µM (inactive) | 33.3 µM (inactive) | > 100 µM (inactive) | > 100 µM (inactive) | 75.2 µM (inactive) | > 100 µM (inactive) | > 100 µM (inactive) | 76.7 µM (inactive) | 49.7 µM (inactive) | 29.6 µM (inactive) | 1 µM (active) | > 100 µM (inactive) | 71.1 µM (inactive) | 52.2 µM (inactive) | 82 µM (inactive) | 21.6 µM (inactive) | 
3 | O=C(NC1=NC2C=CC([N+](=O)[O-])=CC2S1)C(=O)Nn1c(S)nc2ccccc2c1=O (configuration not stated) | 56.4 µM (inactive) | 80 µM (inactive) | 79.3 µM (inactive) | 47.1 µM (inactive) | > 100 µM (inactive) | 40.7 µM (inactive) | 29.4 µM (inactive) | 88.1 µM (inactive) | > 100 µM (inactive) | 65.8 µM (inactive) | > 100 µM (inactive) | 21 µM (inactive) | 24.1 µM (inactive) | 63 µM (inactive) | 88.9 µM (inactive) |  | > 100 µM (inactive) | > 100 µM (inactive) | > 100 µM (inactive) | 
4 | CC(OC(C)(C)C)C(NC(=O)C(CCCCNC(=O)OC(C)(C)C)NC(=O)C(Cc1c[nH]c2ccccc12)NC(=O)C(Cc1ccccc1)NC(=O)OCc1ccccc1)C(=O)NC(Cc1ccccc1)C(=O)O (configuration not stated) (Cbz-FWK(Boc)T(tBu)F-OH; configuration not given here) | > 100 µM (inactive) | > 100 µM (inactive) | 36.6 µM (inactive) | 15.7 µM (inactive) | 40.5 µM (inactive) | 61.7 µM (inactive) | > 100 µM (inactive) | 1.66 µM (inactive) | 43.3 µM (inactive) |  | 57.8 µM (inactive) | 31 µM (inactive) | 69.3 µM (inactive) | 28.1 µM (inactive) | 76.7 µM (inactive) | 36.9 µM (inactive) | 32.1 µM (inactive) | 33.5 µM (inactive) | > 100 µM (inactive) | 44.4 µM (inactive)
5 | NC(=O)C1Cc2cc3c(cc21)OCO3 (configuration not stated) |  | > 100 µM (inactive) | > 100 µM (inactive) | > 100 µM (inactive) |  | > 100 µM (inactive) |  | > 100 µM (inactive) | > 100 µM (inactive) | > 100 µM (inactive) |  | > 100 µM (inactive) | > 100 µM (inactive) |  | > 100 µM (inactive) | > 100 µM (inactive) | > 100 µM (inactive) | > 100 µM (inactive) | > 100 µM (inactive) | 
6 | O=[N+]([O-])/C(Cl)=C(\Nc1ccccc1)C(Cl)=C(Cl)Cl | 20.9 µM (inactive) | 18 µM (inactive) | 36.1 µM (inactive) | 2.19 µM (inactive) | 18.5 µM (inactive) | 44.8 µM (inactive) | 28.9 µM (inactive) | 23.7 µM (inactive) | 12.9 µM (inactive) |  | 36.8 µM (inactive) | 32.4 µM (inactive) | 29.2 µM (inactive) | 33.3 µM (inactive) | 33 µM (inactive) | 19.5 µM (inactive) | 18.2 µM (inactive) | 30.5 µM (inactive) | 23.7 µM (inactive) | 27.4 µM (inactive)
7 | CCOP(=O)(CC(=O)C1CC1)OCC | > 100 µM (inactive) | > 100 µM (inactive) | > 100 µM (inactive) | > 100 µM (inactive) |  | > 100 µM (inactive) |  | > 100 µM (inactive) | > 100 µM (inactive) | > 100 µM (inactive) | > 100 µM (inactive) | > 100 µM (inactive) | > 100 µM (inactive) | > 100 µM (inactive) | > 100 µM (inactive) | > 100 µM (inactive) |  | > 100 µM (inactive) | > 100 µM (inactive) | > 100 µM (inactive)
8 | CC1=NNC(=O)C1C(CC(=O)c1c[nH]c2ccccc12)C(=O)O (configuration not stated) | 74.5 µM (inactive) | > 100 µM (inactive) | > 100 µM (inactive) | > 100 µM (inactive) | 68.5 µM (inactive) | > 100 µM (inactive) | > 100 µM (inactive) | > 100 µM (inactive) | 30.1 µM (inactive) | > 100 µM (inactive) | > 100 µM (inactive) | 15 µM (inactive) | > 100 µM (inactive) | 49 µM (inactive) | > 100 µM (inactive) | 64.7 µM (inactive) | > 100 µM (inactive) | > 100 µM (inactive) | > 100 µM (inactive) | 
9 | CC(C)=NN/C(=N\c1ccc(Cl)cc1)NS(=O)(=O)c1cc(Cl)c(Oc2ccc([N+](=O)[O-])cc2Cl)c(Cl)c1 | > 100 µM (inactive) | 70 µM (inactive) | > 100 µM (inactive) |  | 79.3 µM (inactive) | > 100 µM (inactive) | 51.8 µM (inactive) | > 100 µM (inactive) | > 100 µM (inactive) | > 100 µM (inactive) | > 100 µM (inactive) | > 100 µM (inactive) |  | 25.4 µM (inactive) | 86.1 µM (inactive) | > 100 µM (inactive) | > 100 µM (inactive) | > 100 µM (inactive) | 75.9 µM (inactive) | 
10 | CN(C)/C=N/c1c2ccccc2nc2ccccc12 | 3.65 µM (inactive) | 3.23 µM (inactive) | 3.57 µM (inactive) | 3.74 µM (inactive) | 4.21 µM (inactive) | 3.31 µM (inactive) | 5.4 µM (inactive) | 2.98 µM (inactive) |  | 3.06 µM (inactive) | 1.99 µM (inactive) | 4.23 µM (inactive) | 5.02 µM (inactive) | 2.59 µM (inactive) | 5.7 µM (inactive) | 2.48 µM (inactive) | 3.05 µM (inactive) | 3.06 µM (inactive) | 5.37 µM (inactive) | 
11 | NC(N)=NCc1ccc2c(c1)OCO2 | 60.3 µM (inactive) | 31.1 µM (inactive) | 78.3 µM (inactive) | > 100 µM (inactive) | 73.1 µM (inactive) | 61.1 µM (inactive) | 54.1 µM (inactive) | 24 µM (inactive) | 50 µM (inactive) |  | 67.3 µM (inactive) | > 100 µM (inactive) | 65.5 µM (inactive) | > 100 µM (inactive) | 67 µM (inactive) |  | 97.3 µM (inactive) | 72.9 µM (inactive) | > 100 µM (inactive) | > 100 µM (inactive)
12 | CNc1cc(OCc2ccccc2)c(OC)cc1C(=O)N1CCC[C@H]1CO | 44.1 µM (inactive) | > 100 µM (inactive) | > 100 µM (inactive) | > 100 µM (inactive) | > 100 µM (inactive) | > 100 µM (inactive) |  | > 100 µM (inactive) | > 100 µM (inactive) | > 100 µM (inactive) | > 100 µM (inactive) | > 100 µM (inactive) | > 100 µM (inactive) | > 100 µM (inactive) | > 100 µM (inactive) | > 100 µM (inactive) |  | > 100 µM (inactive) | > 100 µM (inactive) | 
13 | CC(NC(=O)C(Cc1ccc(OCC[N+](C)(C)C)cc1)NC(=O)OC(C)(C)C)C(=O)NC(Cc1ccccc1)C(=O)NCC(N)=O (configuration not stated) (Boc-Y(Ethyl(2-NMe3+))AFG-NH2; configuration not given here) | > 100 µM (inactive) | 20.9 µM (inactive) | 34.9 µM (inactive) | 13.6 µM (inactive) | > 100 µM (inactive) | 15.5 µM (inactive) | 15.7 µM (inactive) | > 100 µM (inactive) | > 100 µM (inactive) | 20.2 µM (inactive) | > 100 µM (inactive) | 20.1 µM (inactive) | 22.1 µM (inactive) | > 100 µM (inactive) | 3.8 µM (inactive) | 75.7 µM (inactive) | 18.2 µM (inactive) | > 100 µM (inactive) | 65.9 µM (inactive) | 
14 | CC1=NN(c2ccccc2)C(=O)/C1=C1\SC(c2ccccc2)(c2ccccc2)c2ccccc21 | > 100 µM (inactive) | > 100 µM (inactive) | 50.4 µM (inactive) | > 100 µM (inactive) | > 100 µM (inactive) | > 100 µM (inactive) | > 100 µM (inactive) | > 100 µM (inactive) | > 100 µM (inactive) | > 100 µM (inactive) | > 100 µM (inactive) | > 100 µM (inactive) | > 100 µM (inactive) | > 100 µM (inactive) | > 100 µM (inactive) | > 100 µM (inactive) | > 100 µM (inactive) | 67.9 µM (inactive) | > 100 µM (inactive) | 
15 | COc1ccc(NCn2nc(CCCCCCCCc3nn(CNc4ccc(OC)cc4)c(=S)o3)oc2=S)cc1 |  | > 100 µM (inactive) | 21 µM (inactive) | > 100 µM (inactive) | > 100 µM (inactive) | > 100 µM (inactive) | > 100 µM (inactive) | > 100 µM (inactive) | > 100 µM (inactive) | > 100 µM (inactive) | > 100 µM (inactive) |  | > 100 µM (inactive) | > 100 µM (inactive) | > 100 µM (inactive) | > 100 µM (inactive) |  | > 100 µM (inactive) | > 100 µM (inactive) | 
